Test results: patent US20060281755A1, “SYNERGISTIC MODULATION OF FLT3 KINASE USING AMINOPYRIMIDINES KINASE MODULATORS” (priority 2005, published 2006)

How the values were obtained:
[1] = molecular target: T1, isolated kinase domain of the human FLT3 receptor (a.a. 571-993) (Homo sapiens, UniProt P36888); assay: FLT3 fluorescence polarization kinase assay; assay type: biochemical; settings: uncertainty ±10%
T1 construct: human FLT3 receptor (a.a. 571-993)
T1 sequence (P36888 571-993): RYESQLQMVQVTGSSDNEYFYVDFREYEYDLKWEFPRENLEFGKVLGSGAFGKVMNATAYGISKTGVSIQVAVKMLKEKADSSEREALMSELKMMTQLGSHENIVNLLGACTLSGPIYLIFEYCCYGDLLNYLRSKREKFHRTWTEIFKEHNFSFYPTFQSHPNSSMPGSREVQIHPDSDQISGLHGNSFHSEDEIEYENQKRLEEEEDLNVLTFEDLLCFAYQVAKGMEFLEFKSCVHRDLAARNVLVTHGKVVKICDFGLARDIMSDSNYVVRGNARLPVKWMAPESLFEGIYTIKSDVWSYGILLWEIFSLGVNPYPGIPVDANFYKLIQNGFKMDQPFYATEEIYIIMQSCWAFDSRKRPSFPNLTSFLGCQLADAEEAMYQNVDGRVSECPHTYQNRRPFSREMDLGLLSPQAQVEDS
Text: The FLT3 FP assay utilizes the fluorescein-labeled phosphopeptide and the anti-phosphotyrosine antibody included in the Panvera Phospho-Tyrosine Kinase Kit (Green) supplied by Invitrogen. When FLT3 phosphorylates polyGlu4Tyr, the fluorescein-labeled phosphopeptide is displaced from the anti-phosphotyrosine antibody by the phosphorylated poly Glu4Tyr, thus decreasing the FP value. […] The kinase reaction is stopped with the addition of EDTA. The fluorescein-labeled phosphopeptide and the anti-phosphotyrosine antibody are added and incubated for 30 minutes at room temperature.

MV4-11 cells = assay: Inhibition of MV4-11 cell proliferation (CellTiterGlo); settings: Homo sapiens, MV4-11, 72 h, read-out: MV4-11 (uM)
Experimental: To measure total cell growth an equal volume of CellTiterGlo reagent was added to each well, according to the manufacturer's instructions, and luminescence was quantified.
MV4-11 cells express the FLT3 internal tandem duplication mutation, and thus are entirely dependent upon FLT3 activity for growth. […] In contrast, the Baf3 cell proliferation is driven by the cytokine IL-3 and thus are used as a non-specific toxicity control for test compounds.

[2] = molecular target: T2, FLT ligand-induced wild-type FLT3 phosphorylation in Baf3 FLT3 cells (Homo sapiens, UniProt P36888); assay: Cell-based FLT3 receptor ELISA
T2 sequence (P36888 27-993): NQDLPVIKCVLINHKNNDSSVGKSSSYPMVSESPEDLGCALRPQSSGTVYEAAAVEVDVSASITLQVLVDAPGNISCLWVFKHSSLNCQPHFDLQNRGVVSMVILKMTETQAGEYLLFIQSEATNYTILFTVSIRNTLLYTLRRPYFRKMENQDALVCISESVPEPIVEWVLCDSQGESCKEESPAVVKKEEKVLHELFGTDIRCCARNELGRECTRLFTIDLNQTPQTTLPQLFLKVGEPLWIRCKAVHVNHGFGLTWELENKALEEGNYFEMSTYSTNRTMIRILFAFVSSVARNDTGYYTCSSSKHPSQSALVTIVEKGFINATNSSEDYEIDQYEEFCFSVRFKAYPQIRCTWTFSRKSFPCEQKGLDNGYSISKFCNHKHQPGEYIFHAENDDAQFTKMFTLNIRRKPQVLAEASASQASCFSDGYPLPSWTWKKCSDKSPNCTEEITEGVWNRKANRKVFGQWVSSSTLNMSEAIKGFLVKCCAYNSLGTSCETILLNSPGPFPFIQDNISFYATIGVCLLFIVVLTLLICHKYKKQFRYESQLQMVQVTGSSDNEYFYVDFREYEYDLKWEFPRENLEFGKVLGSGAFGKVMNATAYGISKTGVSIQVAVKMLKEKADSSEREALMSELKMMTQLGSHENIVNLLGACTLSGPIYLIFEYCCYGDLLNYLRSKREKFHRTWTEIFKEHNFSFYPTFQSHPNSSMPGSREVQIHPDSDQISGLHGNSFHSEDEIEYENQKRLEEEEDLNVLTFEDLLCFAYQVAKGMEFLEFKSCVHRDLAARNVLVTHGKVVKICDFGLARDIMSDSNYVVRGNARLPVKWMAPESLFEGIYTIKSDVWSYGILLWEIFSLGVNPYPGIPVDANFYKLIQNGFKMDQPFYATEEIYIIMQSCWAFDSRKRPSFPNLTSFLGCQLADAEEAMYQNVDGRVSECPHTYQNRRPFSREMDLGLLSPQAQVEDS
Experimental: Specific cellular inhibition of FLT ligand-induced wild-type FLT3 phosphorylation was measured in the following manner: Baf3 FLT3 cells overexpressing the FLT3 receptor were obtained from Dr. Michael Heinrich (Oregon Health and Sciences University).

Row | Compound | IC50 [1] | IC50 (MV4-11 cells) | IC50 [2]
1 | CO/N=C/c1c(N)ncnc1N1CCN(C(=O)Cc2ccc(C(C)C)cc2)CC1 [Compound 7, 4-Amino-6-{4-[2-(4-isopropyl-phenyl)-acetyl]-piperazin-1-yl}-pyrimidine-5-carbaldehyde O-methyl-oxime] | 14 nM | 0.024 µM | 2 nM
2 | CCO/N=C/c1c(N)ncnc1N1CCN(C(=O)Cc2ccc(C(C)C)cc2)CC1 [Compound 13, 4-Amino-6-{4-[2-(4-isopropyl-phenyl)-acetyl]-piperazin-1-yl}-pyrimidine-5-carbaldehyde O-ethyl-oxime (anti-configuration for —C═N—O—)] | 8 nM | 0.013 µM | 116 nM
3 | CCO/N=C\c1c(N)ncnc1N1CCN(C(=O)Cc2ccc(C(C)C)cc2)CC1 [Compound 14, 4-Amino-6-{4-[2-(4-isopropyl-phenyl)-acetyl]-piperazin-1-yl}-pyrimidine-5-carbaldehyde O-ethyl-oxime (syn-configuration for —C═N—O—)] | 24 nM | 0.029 µM | 158 nM
4 | CCO/N=C/c1c(N)ncnc1N1CCN(C(=O)Nc2ccc(N3CCOCC3)cc2)CC1 [Compound 15, 4-[6-Amino-5-(ethoxyimino-methyl)-pyrimidin-4-yl]-piperazine-1-carboxylic acid (4-morpholin-4-yl-phenyl)-amide] | 126 nM | 0.35 µM | 735 nM
5 | Nc1ncnc(N2CCN(C(=O)Nc3ccc(OC4CCC4)nc3)CC2)c1/C=N/OCCN1CCOCC1 [Compound 30, 4-{6-Amino-5-[(2-morpholin-4-yl-ethoxyimino)-methyl]-pyrimidin-4-yl}-piperazine-1-carboxylic acid (6-cyclobutoxy-pyridin-3-yl)-amide] | 1740 nM | 2.5 µM | –
6 | NCCO/N=C/c1c(N)ncnc1N1CCN(C(=O)Nc2ccc(OC3CCC3)nc2)CC1 [Compound 31, 4-{6-Amino-5-[(2-amino-ethoxyimino)-methyl]-pyrimidin-4-yl}-piperazine-1-carboxylic acid (6-cyclobutoxy-pyridin-3-yl)-amide] | 1450 nM | 1.3 µM | 206 nM
7 | CS(=O)(=O)NCCO/N=C/c1c(N)ncnc1N1CCN(C(=O)Nc2ccc(OC3CCC3)nc2)CC1 [Compound 33, 4-{6-Amino-5-[(2-methanesulfonylamino-ethoxyimino)-methyl]-pyrimidin-4-yl}-piperazine-1-carboxylic acid (6-cyclobutoxy-pyridin-3-yl)-amide] | 1150 nM | 2.8 µM | –

Next, values leading:

Row | IC50 [1] | IC50 (MV4-11 cells) | IC50 [2] | Compound
8 | 122 nM | 0.66 µM | 16 nM | CO/N=C/c1c(N)ncnc1N1CCCN(C(=O)Nc2ccc(OC(C)C)cc2)CC1 [Compound 24, 4-[6-Amino-5-(methoxyimino-methyl)-pyrimidin-4-yl]-[1,4]diazepane-1-carboxylic acid (4-isopropoxy-phenyl)-amide]
9 | 1150 nM | 2 µM | – | CC(C)Oc1ccc(NC(=O)N2CCN(c3ncnc(N)c3/C=N/OCCN)CC2)cc1 [Compound 25, 4-{6-Amino-5-[(2-amino-ethoxyimino)-methyl]-pyrimidin-4-yl}-piperazine-1-carboxylic acid (4-isopropoxy-phenyl)-amide]
10 | – | > 1 µM | – | CCNC(=O)NCCO/N=C/c1c(N)ncnc1N1CCN(C(=O)Nc2ccc(OC(C)C)cc2)CC1 [Compound 26, 4-(6-Amino-5-{[2-(3-ethyl-ureido)-ethoxyimino]-methyl}-pyrimidin-4-yl)-piperazine-1-carboxylic acid (4-isopropoxy-phenyl)-amide]
11 | > 10000 nM | 3 µM | – | Nc1ncnc(N2CCN(C(=O)Nc3ccc(N4CCOCC4)cc3)CC2)c1/C=N/OCCN1CCOCC1 [Compound 29, 4-{6-Amino-5-[(2-morpholin-4-yl-ethoxyimino)-methyl]-pyrimidin-4-yl}-piperazine-1-carboxylic acid (4-morpholin-4-yl-phenyl)-amide]
12 | 5150 nM | 0.79 µM | 77 nM | NCCO/N=C/c1c(N)ncnc1N1CCN(C(=O)Nc2ccc(N3CCOCC3)cc2)CC1 [Compound 32, 4-{6-Amino-5-[(2-amino-ethoxyimino)-methyl]-pyrimidin-4-yl}-piperazine-1-carboxylic acid (4-morpholin-4-yl-phenyl)-amide]
13 | 1510 nM | 2.5 µM | – | NCCO/N=C/c1c(N)ncnc1N1CCN(C(=O)Nc2ccc(N3CCCC3)cc2)CC1 [Compound 34, 4-{6-Amino-5-[(2-amino-ethoxyimino)-methyl]-pyrimidin-4-yl}-piperazine-1-carboxylic acid (4-pyrrolidin-1-yl-phenyl)-amide]
